Broadly, the IC50 is the point on the concentration scale where inhibition reaches its midpoint. Read a low IC50 as greater potency.

Here are results for 13 compounds from patent publication US9359358B2, “Cyclohexyl azetidine derivatives as JAK inhibitors” (Incyte Holdings Corporation, priority 2011, dated 2016).

One assay has as its target T1, human JAK2 (Homo sapiens, UniProt O60674).
T1 construct: JAK2 (a.a. 828-1132); His tag (N); made in house; host or cells: insect cells (baculovirus)
As to the kind of experiment: In Vitro JAK Kinase Assay (HTRF, phosphorylation of a biotinylated peptide), JAK2. Format: biochemical. The note with it: assay of Example A. The gist of the method:
(§1)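 HTRF detection (SA-APC plus Eu-labeled anti-phosphotyrosine Py20, 40 min after EDTA stop) quantified biotinylated-peptide phosphorylation. Kinase reactions with human JAK1 or JAK2 catalytic domains lasted 1 h at room temperature.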
In general terms: In TR-FRET formats the signal depends on donor and acceptor labels being close together.

The next assay addresses T2, human JAK1 (Homo sapiens, UniProt P23458).
T2 construct: human JAK1 (a.a. 837-1142); His tag (N); made in house; host or cells: insect cells (baculovirus)
Nature of the assay: In Vitro JAK Kinase Assay (HTRF, phosphorylation of a biotinylated peptide), JAK1. Format: biochemical. The note with it: catalytic domain a.a. 837-1142, assay of Example A. In outline:
as §1

Counter-ions that a name gives are not always drawn.

T2 sequence (P23458 849-1154): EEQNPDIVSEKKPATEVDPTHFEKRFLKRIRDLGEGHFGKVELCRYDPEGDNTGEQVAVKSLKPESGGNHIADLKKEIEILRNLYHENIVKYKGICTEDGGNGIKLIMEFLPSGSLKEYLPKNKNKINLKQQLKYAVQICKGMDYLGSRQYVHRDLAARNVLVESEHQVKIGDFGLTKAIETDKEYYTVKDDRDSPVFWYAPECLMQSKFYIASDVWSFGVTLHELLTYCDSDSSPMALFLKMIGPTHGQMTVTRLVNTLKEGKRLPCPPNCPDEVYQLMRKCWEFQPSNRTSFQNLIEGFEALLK
T1 sequence (O60674 828-1132): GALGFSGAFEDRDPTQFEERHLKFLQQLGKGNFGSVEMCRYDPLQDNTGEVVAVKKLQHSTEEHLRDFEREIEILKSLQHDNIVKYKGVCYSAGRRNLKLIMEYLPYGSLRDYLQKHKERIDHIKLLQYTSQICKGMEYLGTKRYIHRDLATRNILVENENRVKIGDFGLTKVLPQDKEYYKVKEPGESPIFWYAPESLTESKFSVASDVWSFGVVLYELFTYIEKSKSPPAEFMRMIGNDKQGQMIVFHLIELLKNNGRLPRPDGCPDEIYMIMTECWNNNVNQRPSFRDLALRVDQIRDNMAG

Consider `N#CCC1(n2cc(-c3ncnc4[nH]ccc34)cn2)CN([C@H]2CC[C@@H](Oc3cc(C(=O)NC4CCC4)cc(C(F)(F)F)n3)CC2)C1` [Example 90, 2-[(cis-4-{3-(cyanomethyl)-3-[4-(7H-pyrrolo[2,3-d]pyrimidin-4-yl)-1H-pyrazol-1-yl]azetidin-1-yl}cyclohexyl)oxy]-N-cyclobutyl-6-(trifluoromethyl)isonicotinamide bis(trifluoroacetate)], for which the “JAK2/JAK1 IC50 ratio” value on human JAK2 (Table 5) is reported as “≧10”. In addition, the IC50 on human JAK1 (Table 5) was less than 10 nM.
For `C[C@@H](CO)NCc1cc(O[C@H]2CC[C@@H](N3CC(CC#N)(n4cc(-c5ncnc6[nH]ccc56)cn4)C3)CC2)nc(C(F)(F)F)n1` [Example 16, {1-(cis-4-{[6-({[(1S)-2-hydroxy-1-methylethyl]amino}methyl)-2-(trifluoromethyl)pyrimidin-4-yl]oxy}cyclohexyl)-3-[4-(7H-pyrrolo[2,3-d]pyrimidin-4-yl)-1H-pyrazol-1-yl]azetidin-3-yl}acetonitrile Ex 1 tris(trifluoroacetate) (salt)], at human JAK2 (Table 4), the “JAK2/JAK1 IC50 ratio” value is “≧10”. Further, the IC50 against human JAK1 (Table 4) was less than 10 nM.
The like results for `N#CCC1(n2cc(-c3ncnc4[nH]ccc34)cn2)CN([C@H]2CC[C@@H](Oc3cc(CN4CC(F)C4)nc(C(F)(F)F)n3)CC2)C1` [Example 37, {1-(cis-4-{[6-[(3-fluoroazetidin-1-yl)methyl]-2-(trifluoromethyl)pyrimidin-4-yl]oxy}cyclohexyl)-3-[4-(7H-pyrrolo[2,3-d]pyrimidin-4-yl)-1H-pyrazol-1-yl]azetidin-3-yl}acetonitrile tris(trifluoroacetate)] were, in that order, “≧10” and less than 10 nM.
With `CN(CCO)Cc1cc(O[C@H]2CC[C@@H](N3CC(CC#N)(n4cc(-c5ncnc6[nH]ccc56)cn4)C3)CC2)nc(C(F)(F)F)n1` [Example 12, {1-(cis-4-{[6-{[(2-hydroxyethyl)(methyl)amino]methyl}-2-(trifluoromethyl)pyrimidin-4-yl]oxy}cyclohexyl)-3-[4-(7H-pyrrolo[2,3-d]pyrimidin-4-yl)-1H-pyrazol-1-yl]azetidin-3-yl}acetonitrile tris(trifluoroacetate) (salt)], on human JAK2 (Table 4), the “JAK2/JAK1 IC50 ratio” value is “≧10”. Also, the IC50 against human JAK1 (Table 4) is less than 10 nM.
For the compound `CN(C)C(=O)c1cc(O[C@H]2CC[C@@H](N3CC(CC#N)(n4cc(-c5ncnc6[nH]ccc56)cn4)C3)CC2)nc(C(F)(F)F)n1` [Example 46, 6-[(cis-4-{3-(cyanomethyl)-3-[4-(7H-pyrrolo[2,3-d]pyrimidin-4-yl)-1H-pyrazol-1-yl]azetidin-1-yl}cyclohexyl)oxy]-N,N-dimethyl-2-(trifluoromethyl)pyrimidine-4-carboxamide bis(trifluoroacetate)], the “JAK2/JAK1 IC50 ratio” value at human JAK2 (Table 4) is reported as “≧10”. Besides, the IC50 on human JAK1 (Table 4) is less than 10 nM.
Consider `CCNC(=O)c1cc(O[C@H]2CC[C@@H](N3CC(CC#N)(n4cc(-c5ncnc6[nH]ccc56)cn4)C3)CC2)nc(C(F)(F)F)n1` [Example 49, 6-[(cis-4-{3-(cyanomethyl)-3-[4-(7H-pyrrolo[2,3-d]pyrimidin-4-yl)-1H-pyrazol-1-yl]azetidin-1-yl}cyclohexyl)oxy]-N-ethyl-2-(trifluoromethyl)pyrimidine-4-carboxamide bis(trifluoroacetate)], for which, on human JAK2 (Table 4), the “JAK2/JAK1 IC50 ratio” value was “≧10”. The IC50 on human JAK1 (Table 4) is less than 10 nM.
Turning to `N#CCC1(n2cc(-c3ncnc4[nH]ccc34)cn2)CN([C@H]2CC[C@@H](Oc3cc(CNC4CCC4)cc(C(F)(F)F)n3)CC2)C1` [Example 77, {1-(cis-4-{[4-[(cyclobutylamino)methyl]-6-(trifluoromethyl)pyridin-2-yl]oxy}cyclohexyl)-3-[4-(7H-pyrrolo[2,3-d]pyrimidin-4-yl)-1H-pyrazol-1-yl]azetidin-3-yl}acetonitrile tris(trifluoroacetate)], the “JAK2/JAK1 IC50 ratio” value at human JAK2 (Table 5) is “≧10”. The compound further yielded an IC50 against human JAK1 (Table 5) of less than 10 nM.
The like results for `N#CCC1(n2cc(-c3ncnc4[nH]ccc34)cn2)CN([C@H]2CC[C@@H](Oc3cc(CN4CC[C@H](O)C4)cc(C(F)(F)F)n3)CC2)C1` [Example 96, {1-(cis-4-{[4-{[(3S)-3-hydroxypyrrolidin-1-yl]methyl}-6-(trifluoromethyl)pyridin-2-yl]oxy}cyclohexyl)-3-[4-(7H-pyrrolo[2,3-d]pyrimidin-4-yl)-1H-pyrazol-1-yl]azetidin-3-yl}acetonitrile tris(trifluoroacetate)] were, in that order, “≧10” and less than 10 nM.
For the compound `C[C@H](O)CNCc1cc(O[C@H]2CC[C@@H](N3CC(CC#N)(n4cc(-c5ncnc6[nH]ccc56)cn4)C3)CC2)nc(C(F)(F)F)n1` [Example 19, {1-(cis-4-{[6-({[(2R)-2-hydroxypropyl]amino}methyl)-2-(trifluoromethyl)pyrimidin-4-yl]oxy}cyclohexyl)-3-[4-(7H-pyrrolo[2,3-d]pyrimidin-4-yl)-1H-pyrazol-1-yl]azetidin-3-yl}acetonitrile tris(trifluoroacetate) (salt)], the “JAK2/JAK1 IC50 ratio” value on human JAK2 (Table 4) was “≧10”. At human JAK1 (Table 4), this compound had an IC50 of less than 10 nM.
Turning to `N#CCC1(n2cc(-c3ncnc4[nH]ccc34)cn2)CN([C@H]2CC[C@@H](Oc3cc(CCF)nc(C(F)(F)F)n3)CC2)C1` [Example 60, {1-(cis-4-{[6-(2-fluoro ethyl)-2-(trifluoromethyl)pyrimidin-4-yl]oxy}cyclohexyl)-3-[4-(7H-pyrrolo[2,3-d]pyrimidin-4-yl)-1H-pyrazol-1-yl]azetidin-3-yl}acetonitrile tris(trifluoroacetate)], the “JAK2/JAK1 IC50 ratio” value at human JAK2 (Table 4) was “≧10”. In addition, the IC50 at human JAK1 (Table 4) is less than 10 nM.
The like results for `CNCc1cc(O[C@H]2CC[C@@H](N3CC(CC#N)(n4cc(-c5ncnc6[nH]ccc56)cn4)C3)CC2)nc(C(F)(F)F)n1` [Example 4, {1-(cis-4-{[6-[(Methylamino)methyl]-2-(trifluoromethyl)pyrimidin-4-yl]oxy}cyclohexyl)-3-[4-(7H-pyrrolo[2,3-d]pyrimidin-4-yl)-1H-pyrazol-1-yl]azetidin-3-yl}acetonitrile tris(trifluoroacetate)] were, in that order, “≧10” and less than 10 nM.
For `N#CCC1(n2cc(-c3ncnc4[nH]ccc34)cn2)CN([C@H]2CC[C@@H](Oc3cc(CN4CCC[C@H]4CO)nc(C(F)(F)F)n3)CC2)C1` [Example 28, {1-(cis-4-{[6-{[(2R)-2-(hydroxymethyl)pyrrolidin-1-yl]methyl}-2-(trifluoromethyl)pyrimidin-4-yl]oxy}cyclohexyl)-3-[4-(7H-pyrrolo[2,3-d]pyrimidin-4-yl)-1H-pyrazol-1-yl]azetidin-3-yl}acetonitrile tris(trifluoroacetate) (salt)] the same measures were “≧10” and less than 10 nM.
For `CC(C)(O)CNCc1cc(O[C@H]2CC[C@@H](N3CC(CC#N)(n4cc(-c5ncnc6[nH]ccc56)cn4)C3)CC2)nc(C(F)(F)F)n1` [Example 20, {1-(cis-4-{[6-{[(2-hydroxy-2-methylpropyl)amino]methyl}-2-(trifluoromethyl)pyrimidin-4-yl]oxy}cyclohexyl)-3-[4-(7H-pyrrolo[2,3-d]pyrimidin-4-yl)-1H-pyrazol-1-yl]azetidin-3-yl}acetonitrile tris(trifluoroacetate) (salt)], the “JAK2/JAK1 IC50 ratio” value on human JAK2 (Table 4) is listed as “≧10”. This compound also showed an IC50 on human JAK1 (Table 4) of less than 10 nM.
